Laboratory results from patent publication US12084471B2, “Amino acid derivative of glucosamine stimulating extracellular matrix synthesis and pharmaceutical composition comprising the same” (CARTILAGO S.R.L., priority 2018, dated 2024).

How the values were obtained:
IKKα [1] = target: T1, IKKα (Homo sapiens, UniProt O15111); assay: kinase activity of IKKα; assay type: cell-based
T1 sequence (O15111 1-745): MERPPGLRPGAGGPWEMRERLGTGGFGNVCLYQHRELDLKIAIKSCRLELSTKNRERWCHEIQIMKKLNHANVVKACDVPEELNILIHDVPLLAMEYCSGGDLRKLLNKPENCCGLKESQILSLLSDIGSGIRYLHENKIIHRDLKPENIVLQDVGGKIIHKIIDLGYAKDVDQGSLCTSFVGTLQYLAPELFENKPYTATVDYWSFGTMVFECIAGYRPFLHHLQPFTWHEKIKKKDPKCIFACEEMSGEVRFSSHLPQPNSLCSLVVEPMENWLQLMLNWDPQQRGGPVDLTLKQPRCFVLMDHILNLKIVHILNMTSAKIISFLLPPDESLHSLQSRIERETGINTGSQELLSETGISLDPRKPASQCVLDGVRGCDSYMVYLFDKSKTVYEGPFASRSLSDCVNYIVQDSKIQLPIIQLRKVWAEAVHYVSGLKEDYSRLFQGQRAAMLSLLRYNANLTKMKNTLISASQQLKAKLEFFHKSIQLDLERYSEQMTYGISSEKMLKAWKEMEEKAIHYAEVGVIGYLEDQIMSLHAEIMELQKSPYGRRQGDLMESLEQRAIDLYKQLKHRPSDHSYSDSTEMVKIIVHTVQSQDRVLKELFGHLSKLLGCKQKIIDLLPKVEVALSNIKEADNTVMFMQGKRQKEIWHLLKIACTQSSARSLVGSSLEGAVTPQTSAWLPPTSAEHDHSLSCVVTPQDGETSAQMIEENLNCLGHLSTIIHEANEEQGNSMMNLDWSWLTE
Method: (§1) To clarify the molecular mechanism, glucosamine-derived N-acetyl-phenylalanine has been studied in vitro, using primary cultured chondrocytes. The chondrocytes were stimulated with IL-1 in order to study the inflammatory pathway, controlled by the Activator Protein (AP)-1. […] The efficacy of interfering with the inflammatory pathway controlled by the transcription factor Nuclear Factor-κB (NF-κB) was then analyzed, which in turn is controlled by the IKK complex consisting of two IKKα and IKKβ kinases.

IKKβ = target: T2, IKKβ (Homo sapiens, UniProt O14920); assay: kinase activity of IKKβ; assay type: cell-based
T2 sequence (O14920 1-756): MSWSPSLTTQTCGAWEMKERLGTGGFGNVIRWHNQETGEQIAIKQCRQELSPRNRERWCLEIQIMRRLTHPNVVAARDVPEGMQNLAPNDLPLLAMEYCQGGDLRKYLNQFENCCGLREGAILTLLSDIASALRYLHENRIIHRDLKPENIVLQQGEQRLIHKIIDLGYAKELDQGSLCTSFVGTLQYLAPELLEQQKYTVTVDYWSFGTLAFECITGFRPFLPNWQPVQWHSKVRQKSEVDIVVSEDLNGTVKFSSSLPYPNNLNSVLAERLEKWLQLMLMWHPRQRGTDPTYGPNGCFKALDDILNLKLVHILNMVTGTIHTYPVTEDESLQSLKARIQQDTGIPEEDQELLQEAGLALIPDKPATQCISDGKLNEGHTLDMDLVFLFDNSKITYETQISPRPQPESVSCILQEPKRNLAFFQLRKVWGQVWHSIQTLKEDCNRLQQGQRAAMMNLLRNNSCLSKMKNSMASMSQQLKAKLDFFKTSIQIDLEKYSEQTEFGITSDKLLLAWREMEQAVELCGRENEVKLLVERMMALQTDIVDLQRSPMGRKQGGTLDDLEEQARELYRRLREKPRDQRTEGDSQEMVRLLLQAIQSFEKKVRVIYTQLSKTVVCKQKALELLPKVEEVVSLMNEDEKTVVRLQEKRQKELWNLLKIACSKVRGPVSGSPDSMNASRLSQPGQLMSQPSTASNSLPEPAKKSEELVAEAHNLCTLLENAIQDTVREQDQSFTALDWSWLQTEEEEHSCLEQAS
Method: as §1

[2] = tested on: osteoarthritic knees of mice; assay: in vivo model of OA in mice, intra-articular administration; details: mice OA knee
[3] = tested on: fibroblasts stimulated with UVB; assay: fibroblasts stimulated with UVB; assay type: cell-based
From the text: This discovery promptly aroused in the inventors an interest in the ability of this class of products to intervene in the remodeling of the cutaneous ECM, in which the relative alteration of turnover leads to atrophy of the skin, with consequent aging of the skin and in some cases even to onset of skin cancer processes.

c-jun = assay: activation of c-jun (AP-1 component) in primary cultured chondrocytes stimulated with IL-1; assay type: cell-based
Method: as §1

HAS-2 = assay: expression of hyaluronic acid synthetase (HAS-2) and production of hyaluronic acid; assay type: cell-based
[4] = tested on: osteoarthritic knees of rabbits; assay: in vivo model of OA in rabbit, intra-articular administration; details: rabbit OA knee
[5] = tested on: human primary chondrocytes; assay: human primary chondrocytes cultured in three dimensions as spheroids, ECM synthesis; assay type: cell-based; details: human chondrocyte spheroids, compound alone
Method: Finally, in order to understand which intracellular pathways are activated by said N-acetyl-phenylalanine derived from glucosamine to stimulate ECM synthesis, further in vitro studies in human primary chondrocytes were conducted. In order to simulate physiological conditions, the culture of human chondrocytes was carried out in three dimensions, cultivating the cells in the form of spheroids.

p38 = p38 phosphorylation in primary cultured chondrocytes stimulated with IL-1; assay type: cell-based
Method: as §1

IKKα [6] = target: T1, IKKα; assay: translocation of IKKα kinase in the nucleus, primary cultured chondrocytes; assay type: cell-based
Method: as §1

JNK = JNK phosphorylation in primary cultured chondrocytes stimulated with IL-1; assay type: cell-based
Method: as §1

kinase activity of IKKβ (IKKβ): not IKKβ
expression of the enzyme synthetase of hyaluronic acid (HAS-2) (HAS-2): stimulate the expression
production of hyaluronic acid (HA) (HAS-2): stimulate
SMILES: CC(=O)N[C@H](Cc1ccccc1)C(=O)NC1C(O)OC(CO)C(O)C1O (stereo partly drawn) [N-acetyl-phenylalanine derivative of glucosamine]
kinase activity of IKKα (IKKα [1]): selectively inhibiting the kinase activity of IKKα
cartilage structure [2]: structure very similar to the healthy one
synthesis of new ECM [2]: stimulated the synthesis of new ECM
synthesis of type I collagen ([3]; UVB-stimulated fibroblasts, synthesis blocked by UVB treatment): restore the synthesis of type I collagen
inflammatory pathways stimulated by UVB ([3]; compound added to culture medium of UVB-stimulated fibroblasts): able to counteract the inflammatory pathways
activation of c-jun (c-jun): influencing the activation of c-jun
cartilage structure [4]: structure very similar to the healthy one
synthesis of new ECM [4]: stimulated the synthesis of new ECM
synthesis of type II collagen [5]: stimulated the synthesis of type II collagen
phosphorylation of p38 (p38): inhibiting the phosphorylation
translocation in the nucleus of the IKKα kinase (IKKα [6]): inhibited the translocation in the nucleus
phosphorylation of JNK (JNK): inhibiting the phosphorylation
